In paper PMC4956214, “Identification of Host Insulin Binding Sites on Schistosoma japonicum Insulin Receptors” (PLoS ONE, 2016):

Biological target: T1, human insulin (Homo sapiens, UniProt P01308)
T1 construct: human insulin was biotinylated using a NHS-PEO4-biotin kit; biotin (chemical label, NHS-PEO4-biotin)
Experiment: Octet RED insulin binding assay (biotinylated human insulin on streptavidin biosensors)
Settings: Octet RED binding assays

T1 sequence (P01308 25-54 limits assumed): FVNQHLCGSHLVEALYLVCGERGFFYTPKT
T1 sequence (P01308 90-110 limits assumed): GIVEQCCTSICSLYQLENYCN

## AYLIWIRILEDNPSEY [Analogue 16, peptide analogue from SjIR-2 FnIII-1]
  Specific binding to human insulin: no specific binding

## GSLIIENGNCSGDLSTLLPNLTVIRNQVI [Analogue 2, peptide analogue from SjIR-1 L1 domain]
  Specific binding to human insulin: no specific binding

## HEPKCHKVIEPITN [Analogue 8, peptide analogue from SjIR-1 FnIII-1]
  Specific binding to human insulin: no specific binding

## IGIDESESIIETIC [Analogue 7, peptide analogue from SjIR-1 FnIII-1]
  Specific binding to human insulin: no specific binding

## ILPVIVDEVVSLKSDTVG [Analogue 18, peptide analogue from SjIR-2 FnIII-2]
  Specific binding to human insulin: no specific binding

## IPRDASLPFLKEVTGSLLVYDTEGPEDL [Analogue 14, peptide analogue from SjIR-2 L1]
  Specific binding to human insulin: no specific binding
